Measurements from patent US8097592B2, “Cocrystal of C-glycoside derivative and L-proline” (Astellas Pharma Inc., priority 2006, dated 2012).

Columns and labels:
[1] = Storage stability test (X-ray powder diffraction at various humidities and storage conditions); format: physicochemical
Description: (2) Humidity-Controlled Measurement “MAC Science […] 22 with a multifunctional humidity and temperature converter ([…] 235)” equipped with a copper X-ray tube was used under the conditions of a current of 350 mA, a tube voltage of 50 kV, a sampling width of 0.020°, a scanning rate of 3°/min, wavelength of 1.54056 Å, and measurement angles of diffraction range of (2θ): 5 to 40°. [Storage Stability Test] The measurement of X-ray powder diffraction was conducted continuously at 25° C. in a relative humidity range of 2 to 88%.

[2] = Moisture absorptivity test (weight change, VTI SGS-100); format: physicochemical; details: for moisture absorption behaviour: interval 5%
Description: [Moisture Absorptivity Test] Weight change was measured by using of “VTI SGS-100” under the conditions of temperature=25° C., relative humidity range=5 to 95%, and relative humidity interval=5%. […] Further, while known compound A gives moisture absorption curves slightly different from each other depending upon the particle size and crystal habit, there was a case that 3.2% of water was desorbed and absorbed at 25° C. at 5 to 95% RH.

[3] = target: Human Na^+-Glucose Cotransporter (Human SGLT2) (Homo sapiens, UniProt P31639); assay: cell-based
Sequence of Human Na^+-Glucose Cotransporter (Human SGLT2) (P31639 whole entry): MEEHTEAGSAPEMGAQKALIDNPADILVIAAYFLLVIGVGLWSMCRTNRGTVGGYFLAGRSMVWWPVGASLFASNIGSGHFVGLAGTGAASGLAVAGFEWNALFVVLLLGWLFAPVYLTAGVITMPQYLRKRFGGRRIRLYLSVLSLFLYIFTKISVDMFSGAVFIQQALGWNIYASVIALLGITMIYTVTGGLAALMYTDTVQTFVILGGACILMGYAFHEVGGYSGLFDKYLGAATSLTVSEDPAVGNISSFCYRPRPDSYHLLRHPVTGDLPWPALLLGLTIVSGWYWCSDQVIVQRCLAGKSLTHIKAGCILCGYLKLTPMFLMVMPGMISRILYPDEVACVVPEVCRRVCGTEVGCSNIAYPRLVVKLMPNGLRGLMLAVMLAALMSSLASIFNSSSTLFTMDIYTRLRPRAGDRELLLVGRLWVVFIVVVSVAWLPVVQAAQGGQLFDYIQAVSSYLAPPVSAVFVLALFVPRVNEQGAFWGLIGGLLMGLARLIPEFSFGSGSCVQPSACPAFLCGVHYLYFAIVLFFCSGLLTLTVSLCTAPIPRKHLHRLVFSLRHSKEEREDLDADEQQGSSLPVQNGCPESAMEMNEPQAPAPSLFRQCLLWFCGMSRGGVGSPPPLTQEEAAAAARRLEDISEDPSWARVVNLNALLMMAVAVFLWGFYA
Description: (Test 1) [Test for Confirming Effect of Inhibiting Activity of Human Na^+-Glucose Cotransporter (Human SGLT2)]
3) Measurement of Inhibition of methyl-α-D-glucopyranoside Intake
After removing the medium of a CHO cell which stably express the human SGLT2, a pretreatment buffer solution (buffer solution of pH 7.4 containing choline chloride (140 mM), potassium chloride (2 mM), calcium chloride (1 mM), magnesium chloride (1 mM), 2-[4-(2-hydroxyethyl)-1-piperazinyl]ethanesulfonic acid (10 mM), and tris(hydroxymethyl)aminomethane (5 mM)) was added in the amount of 100 μl per well, and incubated at 37° C. for 20 minutes.
11 μl of methyl-α-D-(U-14C) glucopyranoside
(manufactured by Amersham Pharmacia Biotech) was added to and mixed with 1,000 μl of a buffer solution for intake containing a cocrystal of the present invention (buffer solution of pH 7.4 containing sodium chloride (140 mM), potassium chloride (2 mM), calcium chloride (1 mM), magnesium chloride (1 mM), methyl-α-D-glucopyranoside (50 μM), 2-[4-(2-hydroxyethyl)-1-piperazinyl]ethanesulfonic acid (10 mM), and tris(hydroxymethyl)aminomethane (5 mM)) to prepare a buffer solution for intake. A buffer solution for intake without a test crystal was prepared for a control group. […]

KK-A^y mice = assay: Test for confirming effect of antihyperglycemic action (blood sugar AUC 0 to 8 hours); format: in vivo; details: non-fasted male KK-A^y mice, oral, 1 mg/10 mL suspension at 10 mL/kg
Description: (Test 2): [Test for Confirming Effect of Antihyperglycemic Action] Non-fasted KK-A^y mice (Clea Japan, Inc., male) were used as a test animal. The cocrystal of the present invention was suspended in an aqueous 0.5% methyl cellulose solution, in a concentration of 1 mg/10 mL. The body weight of each mouse was measured, and the suspension of the cocrystal of the present invention was forcibly administered orally in an amount of 10 mL/kg. Only the aqueous 0.5% methyl cellulose solution was administered to a control group. The number of mice per each group was 6. Blood samples were taken from the tail vein of each mouse right before administration and 1, 2, 4 and 8 hours after administration. Blood sugar value was measured using Glucose CII Test Wako (Wako Pure Chemical Industries, ltd.). From the blood sugar values of the cocrystal of the present invention-administered group at 0 to 8 hours were calculated an area under blood sugar value-time curve (AUC) according to the trapezoidal method; a ratio (%) of that area to the area of control group was determined; and it was taken as intensity of […] action.

[4] = 25° C., relative humidity range 5 to 95%

| Compound | physical stability on standing ([1]; 40° C./75% RH/open) | physical stability on standing ([1]; 60° C./uncontrolled humidity) | physical stability on standing ([1]; 80° C./uncontrolled humidity) | physical change on standing ([1]; up to 7 days at room temperature (25° C.) at 63.5% RH to 84% RH) | physical stability in the moisture absorptivity test [2, 4] | moisture absorption behaviour [2, 4] | moisture content ([2]; 25° C., total relative humidity range of 5 to 95%) | IC50 [3] | intensity of antihyperglycemic action (ratio of blood sugar AUC to control group) (KK-A^y mice) | X-ray powder diffraction change associated with the change of relative humidity ([1]; 25° C., relative humidity range of 2 to 88%, continuous measurement) | physical stability of crystals of free form ([1]; crystals from various crystallization conditions, room temperature and low humidity) | water desorbed and absorbed ([2]; 25° C. at 5 to 95% RH) | weight change ([2]; 25° C., from relative humidity of 25 to 35%) |
| --- | --- | --- | --- | --- | --- | --- | --- | --- | --- | --- | --- | --- | --- |
| OC[C@H]1O[C@@H](c2ccc(F)c(Cc3cc4ccccc4s3)c2)[C@H](O)[C@@H](O)[C@@H]1O [cocrystal of the present invention, cocrystal of (1S)-1,5-anhydro-1-[3-(1-benzothien-2-ylmethyl)-4-fluorophenyl]-D-glucitol and L-proline] | physically stable for at least two months | physically stable for at least two months | physically stable for at least two months | no physical change | stable physically | no moisture absorptivity | ≤ 0.7% | 5.8 nM | strong antihypoglycemic action | – | – | – | – |
| OC[C@H]1O[C@@H](c2ccc(F)c(Cc3cc4ccccc4s3)c2)[C@H](O)[C@@H](O)[C@@H]1O [known compound A, (1S)-1,5-anhydro-1-[3-(1-benzothien-2-ylmethyl)-4-fluorophenyl]-D-glucitol, reference compound] | – | – | – | – | – | non-stoichiometric moisture absorption accompanied by physical change at low humidity | – | – | – | shift of diffraction angle | physically unstable crystals | 3.2% | sharp increase in weight |
